Assays:
[1] = system: Menschliche Leukämiezellen und Lungenkarzinomzellen; assay: Inhibition of proliferation (growth kinetics by cell count) of tumour cells in culture; assay type: cell-based; conditions: for zytostatische Wirkung (Hemmung der Proliferation in vitro): general statement
[2] = system: Lungenademokarzinomen und Mäuseleukämien; assay: Long-term oral treatment of mice (104 - 107 weeks), mortality and tumour incidence; assay type: in vivo, NMRI-Mäuse; conditions: 0.02, 0,06 and 0,2 mg/kg oral
Source text: Des weiteren wurden NMRI-Mäuse mit 0.02.

[3] = Long-term oral treatment of rats (104 - 107 weeks), mortality; assay type: in vivo, Han-Wistar-Ratten; conditions: 0,02, 0,2 and 1,0 mg/kg oral
[4] = system: weißen Blutzellen des Menschen; assay: Accumulation in cells on incubation, detected by fluorescence optics; assay type: cell-based; conditions: incubation with 10^-7 -10-5-molar concentration
Source text: Die selektive Wirkung auf Tumore wird auch dadurch unterstützt, daß sich Ergot-Alkaloide wie Lisurid in einzelnen Organen selektiv anreichern und damit hier zu besonders hoher Wirksamkeit gelangen.

[5] = system: adulte und embryonale Lungenfibroblasten; assay: Inhibition of proliferation of normal cells under the same culture conditions; assay type: cell-based; conditions: high doses such as 100 ug/ml; same test conditions
Source text: Tag durch frisches Medium mit Lisurid ersetzt wurde, wobei sich die Menge des Ergot-Alkaloids auf die freie Base Lisurid bezieht. Die Wachstumskinetik, d.h. die Vermehrungsrate pro Zeiteinheit, wurde durch Bestimmung der Zellzahl nach 48, 96 und 144 Stunden ermittelt und mit der von Zellen verglichen, die in Lisurid-freiem Medium kultiviert wurden.

## CCCN1CC(NC(=O)N(CC)CC)CC2c3cccc4[nH]cc(c34)CC21 (stereo not drawn) [Protegurid, 1,1-Diethyl-3-(6-u-propyl-8α-ergolinyl)-harnstoff]
[1]
  zytostatische Wirkung (Hemmung der Proliferation in vitro): zytostatisch wirken

## CCN(CC)C(=O)N[C@H]1C=C2c3cccc4[nH]cc(c34)C[C@H]2N(C)C1 [Lisurid, 1,1-Diethyl-3-(6-methyl-9.10-didelhydro-8a-ergolinyl)-harnstoff]
[2]
  Auftreten von Lungenademokarzinomen und Mäuseleukämien: deutlichen Hemmung
  Mortalität: teilweise zur Verminderung der Mortalität
[3]
  Sterblichkeit (überwiegend tumorbedingt): dosisabhängig reduzieren
[4]
  Anreicherung der Lisuridfluoreszenz: massive Anreicherung
[1]; 100 ug/ml
  zytotoxische Wirkung: zytotoxische Wirkung
[5]
  Hemmung von Normalzellen: wenn überhaupt nur minimal gehemmt

## CCN(CC)C(=O)N[C@H]1C=C2c3cccc4[nH]c(Br)c(c34)C[C@H]2N(C)C1 [Bromergurid, 1,1-Diethyl-3-(2-brom-6-methyl-9.10-didehydro-8a-ergolinyl)-harnstoff]
[1]
  zytostatische Wirkung (Hemmung der Proliferation in vitro): zytostatisch wirken

## CCN(CC)C(=O)N[C@H]1C[C@@H]2c3cccc4[nH]cc(c34)C[C@H]2N(C)C1 [Tergurid, 1,1-Diethyl-3-(6-methyl-8a-erfolinyl)-harnstoff]
[1]
  zytostatische Wirkung (Hemmung der Proliferation in vitro): zytostatisch wirken

Reference: patent EP0120019B1, “PHARMACEUTICAL COMPOSITION HAVING A C[…]” (SCHERING AKTIENGESELLSCHAFT, priority 1982, dated 1983)
